Where a name gives a salt, the structure may show the parent alone. Where only a bound is given, the exact number is not on record here.

The test has as its target T1, TAK1-TAB1 fusion protein (Homo sapiens, UniProt O43318).
T1 construct: purchased Carna
T1 sequence (O43318 with tags, fused parts or gaps limits assumed): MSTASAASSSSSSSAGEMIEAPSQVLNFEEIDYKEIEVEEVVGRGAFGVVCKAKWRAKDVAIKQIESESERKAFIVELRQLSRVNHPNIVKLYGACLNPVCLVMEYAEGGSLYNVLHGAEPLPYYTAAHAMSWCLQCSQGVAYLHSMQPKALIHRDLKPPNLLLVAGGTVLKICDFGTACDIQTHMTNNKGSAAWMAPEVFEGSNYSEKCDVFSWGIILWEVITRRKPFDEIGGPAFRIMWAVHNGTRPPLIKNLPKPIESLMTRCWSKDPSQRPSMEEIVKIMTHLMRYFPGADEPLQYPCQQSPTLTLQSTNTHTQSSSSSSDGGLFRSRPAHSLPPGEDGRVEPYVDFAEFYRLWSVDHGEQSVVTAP
Description: TAK1 biochemical assay (AlphaScreen, GST-MAP2K7 substrate). To be noted: TAK1-TAB1 fusion protein, GST-MAP2K7 substrate; read-out: mean TAK1 IC50 (Col. A). In general terms: Bead proximity is the source of the signal in Alpha formats.
Broadly, the IC50 is the midpoint of a concentration-inhibition curve. For `Cc1c(-c2cnc(N)c3oc(-c4csc5cnccc45)cc23)cnn1[C@@H]1C[C@@H](O)[C@@H](O)C1` [Example 312, rel-(1R,2S,4S)-4-[4-(7-amino-2-thieno[2,3-c]pyridin-3-yl-furo[2,3-c]pyridin-4-yl)-5-methyl-pyrazol-1-yl]-cyclopentane-1,2-diol], the IC50 was 1000 to 10000 nM.

On to `COc1cccc(COc2cccc(-c3cc4c(-c5cnn(C6CCN(C(C)=O)CC6)c5)cnc(N)c4o3)c2)c1` [Example 207, 1-{4-[4-(7-amino-2-{3-[(3-methoxybenzyl)oxy]phenyl}furo[2,3-c]pyridin-4-yl)-1H-pyrazol-1-yl]piperidin-1-yl}ethanone], for which the IC50 is above 10000 nM.

Turning to `Nc1ncc(-c2cnn([C@H]3CC[C@H](O)CC3)c2)c2cc(-c3cccc4ccsc34)oc12` [Example 232, trans-4-{4-[7-amino-2-(1-benzothiophen-7-yl)furo[2,3-c]pyridin-4-yl]-1H-pyrazol-1-yl}cyclohexanol diformate salt], the IC50 was in the range of 100 to 1000 nM.

On to `Nc1cncc(-c2cc3c(-c4cnn(C5CCNCC5)c4)cnc(N)c3o2)c1` [Example 31, 2-(5-aminopyridin-3-yl)-4-[1-(piperidin-4-yl)-1H-pyrazol-4-yl]furo[2,3-c]pyridine-7-amine], for which the IC50 was in the range of 100 to 1000 nM.

On to `CC(=O)N1CCC(n2cc(-c3cnc(N)c4oc(-c5cnc6ccccc6c5)cc34)cn2)CC1` [Example 168, 1-(4-{4-[7-amino-2-(quinolin-3-yl)furo[2,3-c]pyridin-4-yl]-1H-pyrazol-1-yl}piperidin-1-yl)ethanone], for which the IC50 lay in the range of 1000 to 10000 nM.

For `CCCOc1cccc(-c2cc3c(-c4cnn(C5CCN(C(C)=O)CC5)c4)cnc(N)c3o2)c1` [Example 181, 1-(4-{4-[7-amino-2-(3-propoxyphenyl)furo[2,3-c]pyridin-4-yl]-1H-pyrazol-1-yl}piperidin-1-yl)ethanone], the half-inhibitory concentration (IC50) was above 10000 nM.

On to `Cc1c(-c2cnc(N)c3oc(-c4csc5cnccc45)cc23)cnn1[C@H]1CC[C@H](O)CC1` [Example 305, 4-[4-(7-amino-2-thieno[2,3-c]pyridin-3-yl-furo[2,3-c]pyridin-4-yl)-5-methyl-pyrazol-1-yl]-cyclohexanol], for which the IC50 was in the range of 1000 to 10000 nM.

`CC(=O)N1CCC(n2cc(-c3cnc(N)c4oc(-c5cccc6ccncc56)cc34)cn2)CC1` [Example 190, 1-(4-{4-[7-amino-2-(isoquinolin-8-yl)furo[2,3-c]pyridin-4-yl]-1H-pyrazol-1-yl}piperidin-1-yl)ethanone]: the IC50 lay within 1000 to 10000 nM.

As for `CC(=O)N1CCC(n2cc(-c3cnc(N)c4oc(-c5c(C#CC(C)(C)O)sc6cnccc56)cc34)cn2)CC1` [Example 265, 1-[4-(4-{7-amino-2-[2-(3-hydroxy-3-methylbut-1-yn-1-yl)thieno[2,3-c]pyridin-3-yl]furo[2,3-c]pyridin-4-yl}-1H-pyrazol-1-yl)piperidin-1-yl]ethanone trifluoroacetate], the IC50 was in the range of 100 to 1000 nM.

In the case of `CC(=O)N1CCC(n2cc(-c3cnc(N)c4oc(-c5cccc6c5cnn6C)cc34)cn2)CC1` [Example 214, 1-(4-{4-[7-amino-2-(1-methyl-1H-indazol-4-yl)furo[2,3-c]pyridin-4-yl]-1H-pyrazol-1-yl}piperidin-1-yl)ethanone], the IC50 lay within 100 to 1000 nM.

For `COC(=O)c1cc(-c2cnc(N)c3oc(-c4csc5cnccc45)cc23)cn1C` [Example 398, 4-(7-amino-2-thieno[2,3-c]pyridin-3-yl-furo[2,3-c]pyridin-4-yl)-1-methyl-1H-pyrrole-2-carboxylic acid methyl ester], the IC50 lay in the range of 1000 to 10000 nM.

Turning to `CSc1nc2cccc(-c3cc4c(-c5cnn([C@H]6CC[C@H](O)CC6)c5)cnc(N)c4o3)c2s1` [Example 353, trans-4-(4-{7-amino-2-[2-(methylsulfanyl)-1,3-benzothiazol-7-yl]furo[2,3-c]pyridin-4-yl}-1H-pyrazol-1-yl)cyclohexanol Trifluoroacetate (Salt)], the IC50 was 1000 to 10000 nM.

Turning to `CCn1cc(-c2cnc(N)c3oc(-c4cccc5cnccc45)cc23)cn1` [Example 71, 4-(1-ethyl-1H-pyrazol-4-yl)-2-(isoquinolin-5-yl)furo[2,3-c]pyridin-7-amine], the IC50 lay in the range of 1000 to 10000 nM.

In the case of `CN1CCC(n2cc(-c3cnc(N)c4oc(-c5cccc6ccsc56)cc34)cn2)CC1` [Example 57, 2-(1-benzothiophen-7-yl)-4-[1-(1-methylpiperidin-4-yl)-1H-pyrazol-4-yl]furo[2,3-c]pyridin-7-amine], the IC50 was in the range of 1000 to 10000 nM.

In the case of `COc1ccccc1COc1cccc(-c2cc3c(-c4cnn(C5CCN(C(C)=O)CC5)c4)cnc(N)c3o2)c1` [Example 212, 1-{4-[4-(7-amino-2-{3-[(2-methoxybenzyl)oxy]phenyl}furo[2,3-c]pyridin-4-yl)-1H-pyrazol-1-yl]piperidin-1-yl}ethanone], the IC50 was above 10000 nM.

As for `Nc1ncc(-c2cnn(C3CCNCC3)c2)c2cc(-c3cccc4ccsc34)oc12` [Example 17, 4-{4-[7-amino-2-(1-benzothiophen-7-yl)furo[2,3-c]pyridine-4-yl]-1H-pyrazol-1-yl}piperidine hydrochloride], the IC50 fell in the range of 1000 to 10000 nM.

As to `CC(=O)N1CCC(n2cc(-c3cnc(N)c4oc(-c5cccc(CN)c5)cc34)cn2)CC1` [Example 178, 1-[4-(4-{7-amino-2-[3-(aminomethyl)phenyl]furo[2,3-c]pyridin-4-yl}-1H-pyrazol-1-yl)piperidin-1-yl]ethanone], the IC50 lay in the range of 100 to 1000 nM.

Turning to `CC(=O)N1CCC(n2cc(-c3cnc(N)c4oc(-c5c(F)ccc6ncsc56)cc34)cn2)CC1` [Example 358, 1-(4-{4-[7-amino-2-(6-fluoro-1,3-benzothiazol-7-yl)furo[2,3-c]pyridin-4-yl]-1H-pyrazol-1-yl}piperidin-1-yl)ethanone bis(trifluoroacetate)], the IC50 was in the range of 100 to 1000 nM.

Take `CC(=O)N1CCC(n2cc(-c3cnc(N)c4oc(-c5ccnc6ccccc56)cc34)cn2)CC1` [Example 175, 1-(4-{4-[7-amino-2-(quinolin-4-yl)furo[2,3-c]pyridin-4-yl]-1H-pyrazol-1-yl}piperidin-1-yl)ethanone]: the IC50 was 100 to 1000 nM.

In the case of `Cn1ccc(-c2cnc(N)c3oc(-c4csc5cnccc45)cc23)c1` [Example 389, 4-(1-methyl-1H-pyrrol-3-yl)-2-(thieno[2,3-c]pyridin-3-yl)furo[2,3-c]pyridin-7-amine trifluoroacetate], the IC50 fell in the range of 1000 to 10000 nM.

As for `CC(=O)Nc1cccc(-c2cc3c(-c4cnn(C5CCN(C(C)=O)CC5)c4)cnc(N)c3o2)c1` [Example 137, N-(3-{4-[1-(1-acetylpiperidin-4-yl) 1H-pyrazol-4-yl]-7-aminofuro[2,3-c]pyridin-2-yl}phenyl)acetamide], the IC50 was in the range of 1000 to 10000 nM.

Turning to `Cc1c(-c2cccc3ccsc23)oc2c(N)ncc(-c3cnn(C4CCNCC4)c3)c12` [Example 10, 2-(1-benzothiophen-7-yl)-3-methyl-4-[1-(piperidin-4-yl)-1H-pyrazol-4-yl]furo[2,3-c]pyridin-7-amine hydrochloride], the IC50 fell in the range of 1000 to 10000 nM.

In the case of `CC(=O)N1CCC(n2cc(-c3cnc(N)c4oc(-c5cccc(-c6ccccc6)c5)cc34)cn2)CC1` [Example 160, 1-(4-{4-[7-amino-2-(biphenyl-3-yl)furo[2,3-c]pyridin-4-yl]-1H-pyrazol-1-yl}piperidin-1-yl)ethanone], the IC50 lay within 1000 to 10000 nM.

The values are drawn from US8378104B2 (OSI Pharmaceuticals, LLC, priority 2010, dated 2013).
